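Tested at 5 concentrations; 48 h exposure; 96-well plates; endpoints linearly interpolated, else capped at highest concentration. GI50 = concentration required for 50% inhibition of growth. TGI marks complete inhibition of growth.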
What was measured:
Assay in all cases: inhibition of tumour cell growth, NCI panel, 48 h
ACHN renal = test system: ACHN renal
HT29 colon = test system: HT29 colon
KM12 colon = test system: KM12 colon
OVCAR-4 ovarian = test system: OVCAR-4 ovarian
RPMI-8226 leukemia = test system: RPMI-8226 leukemia
U251 CNS = test system: U251 CNS
SF-295 CNS = test system: SF-295 CNS
DU-145 prostate = test system: DU-145 prostate
MCF7 breast = test system: MCF7 breast
PC-3 prostate = test system: PC-3 prostate

SMILES	TGI (ACHN renal) [µM]	TGI (HT29 colon) [µM]	TGI (KM12 colon) [µM]	TGI (OVCAR-4 ovarian) [µM]	TGI (RPMI-8226 leukemia) [µM]	TGI (U251 CNS) [µM]	TGI (SF-295 CNS) [µM]	GI50 (ACHN renal) [µM]	GI50 (DU-145 prostate) [µM]	TGI (DU-145 prostate) [µM]	GI50 (HT29 colon) [µM]	GI50 (KM12 colon) [µM]	GI50 (MCF7 breast) [µM]	TGI (MCF7 breast) [µM]	GI50 (OVCAR-4 ovarian) [µM]	GI50 (PC-3 prostate) [µM]	TGI (PC-3 prostate) [µM]	GI50 (RPMI-8226 leukemia) [µM]	GI50 (U251 CNS) [µM]	GI50 (SF-295 CNS) [µM]
CCOP(=O)(OCC)C(C(=O)OC)C(=O)C(=O)Nc1ccc(Cl)cc1Cl (stereo not drawn)	> 100	> 100	> 100	> 100	> 100	> 100														
Cc1cc2c(c(C(N)=O)c1C)-c1ccccc1C2=O	> 100	> 100	> 100	> 100	> 100	> 100	> 100													
CC(C)(C)[Si](C)(C)OC1[C@@H](CNC(=O)NC(=O)CCl)O[C@@H](n2cnc3c(N)ncnc32)[C@H]1O[Si](C)(C)C(C)(C)C (stereo partly drawn)	1.11	1.43	1.98	2.51	2.34	1.58		0.462	2.05	5.26	0.585	0.897	0.724	1.51	0.924	0.942	2.05	0.805	0.849	
COC(=O)/C([Se]c1c(C)cc(C)cc1C)=C(/[Se]c1c(C)cc(C)cc1C)C(=O)OC	> 100	> 100	> 100	> 100	> 100	> 100	> 100													
CCOC(=O)NC(=O)c1cn(C2CCCCC2)c(=O)[nH]c1=O	> 100	> 100	> 100	> 100	> 100	> 100	> 100													
CC(=O)N1CCN(c2ccc(OCC3COC(Cn4ccnc4)(c4ccc(Cl)cc4Cl)O3)cc2)CC1 (stereo not drawn)	> 100	43.9	> 100	> 100	> 100															
COc1c(C)n(CCO)ccc1=O	> 100	> 100	> 100	> 100	> 100	> 100	> 100													
COc1ccc(CC2c3c(cc(OC)c(OC)c3OC)CCN2C)cc1OC (stereo not drawn)	> 100	> 100	> 100	> 100	> 100	> 100	> 100													
Cc1[nH]c2ccccc2c1C1Cc2ccccc2N1C(=O)C#Cc1ccc([N+](=O)[O-])cc1 (stereo not drawn)	> 100	> 100	> 100	> 100	> 100	> 100	> 100													
Cc1cc(Nc2nc(-c3cn(-c4ccc(Cl)cc4)nn3)nc3ccccc23)n[nH]1	> 50	> 50	> 50	> 50	> 50	> 50	38.5	3.62	10.7	> 50	23.5	4.95	27	> 50	10.1			19.6	9.39	7.6
O=C(N/C(=C\c1ccc([N+](=O)[O-])cc1)c1nc2ccccc2[nH]1)c1ccccc1	> 100	> 100	> 100	> 100	> 100	> 100	> 100													
COc1cc2c(cc1O)CCN[C@]21CS[C@@H]2c3c(OC(C)=O)c(C)c4c(c3[C@H](COC1=O)N1[C@@H]2[C@H]2c3c(cc(C)c(OC)c3O)C[C@@H]([C@@H]1O)N2C)OCO4		2.52		0.0718	0.00529	1.02	1.01			1				0.979		0.00279	0.119			
COC(=O)C1C(O)C(C(=O)OC)C(C)N(C)C1C (stereo not drawn)	> 100	> 100	> 100	> 100	> 100	> 100	> 100							> 100			> 100			
CC(C)=C1CCC(CN(C)C)C1=O (stereo not drawn)	31.5	41.1	> 100	28.4		> 100	> 100													
CC1(C)CN=C(NN=C(/C=C/c2ccc(C(F)(F)F)cc2)/C=C/c2ccc(C(F)(F)F)cc2)NC1	2.48	2.14	2.45	2.72	2.3	2.47	3.28	1.19	1.04	2.22	0.785	1.21	1.4	2.92	1.29			0.466	1.2	1.72
COc1cc(/C=C2\[C@H]3c4c(c(OC)c(C)c(OC)c4OC)CC(C(=O)N2Cc2ccccc2)N3C)c(OC)c(C)c1OC	78.7	41.1	> 100	> 100	61.2	34.7	41.5													
CCC(C)(O)c1cnc(CC(C)C)c(=O)n1O (stereo not drawn)	> 100	> 100	> 100	> 100	28.5	> 100	> 100			> 100							> 100			
COc1ccc(C(=O)c2cc(OC)c(OC)c(OC)c2)cc1OC	> 100	9.75	28.9		> 100	> 100	4.27			> 100				> 100			> 100			
COc1cc(/C=C\c2cc(OC)c(OC)c(OC)c2)cc(N/C=C\C(=O)c2c[nH]c3ccccc23)c1OC	3.39	5.14	14.1		2.93	15.7	22.9	1.75	2.06	4.08	2.28	3.69	0.72	3.15		3.44	18.6	0.627	3.84	7.94
Nc1c(-c2ccccc2-c2c(N)[n+]([O-])c3ccccc3[n+]2[O-])[n+]([O-])c2ccccc2[n+]1[O-]	> 100	> 100	50.2	> 100	63.4	> 100	> 100													
